The values below come from patent publication US7192942B2, “Process for production of crystals of 11μ-benzaldoxim-estra-4,9-diene derivatives, crystals obtained thereby and pharmaceutical preparations containing them” (Schering AG, priority 2002, dated 2007).

In data set [1] the target is T1, progesterone receptor (PR) (Homo sapiens, UniProt P06401).
T1 sequence (P06401 1-933): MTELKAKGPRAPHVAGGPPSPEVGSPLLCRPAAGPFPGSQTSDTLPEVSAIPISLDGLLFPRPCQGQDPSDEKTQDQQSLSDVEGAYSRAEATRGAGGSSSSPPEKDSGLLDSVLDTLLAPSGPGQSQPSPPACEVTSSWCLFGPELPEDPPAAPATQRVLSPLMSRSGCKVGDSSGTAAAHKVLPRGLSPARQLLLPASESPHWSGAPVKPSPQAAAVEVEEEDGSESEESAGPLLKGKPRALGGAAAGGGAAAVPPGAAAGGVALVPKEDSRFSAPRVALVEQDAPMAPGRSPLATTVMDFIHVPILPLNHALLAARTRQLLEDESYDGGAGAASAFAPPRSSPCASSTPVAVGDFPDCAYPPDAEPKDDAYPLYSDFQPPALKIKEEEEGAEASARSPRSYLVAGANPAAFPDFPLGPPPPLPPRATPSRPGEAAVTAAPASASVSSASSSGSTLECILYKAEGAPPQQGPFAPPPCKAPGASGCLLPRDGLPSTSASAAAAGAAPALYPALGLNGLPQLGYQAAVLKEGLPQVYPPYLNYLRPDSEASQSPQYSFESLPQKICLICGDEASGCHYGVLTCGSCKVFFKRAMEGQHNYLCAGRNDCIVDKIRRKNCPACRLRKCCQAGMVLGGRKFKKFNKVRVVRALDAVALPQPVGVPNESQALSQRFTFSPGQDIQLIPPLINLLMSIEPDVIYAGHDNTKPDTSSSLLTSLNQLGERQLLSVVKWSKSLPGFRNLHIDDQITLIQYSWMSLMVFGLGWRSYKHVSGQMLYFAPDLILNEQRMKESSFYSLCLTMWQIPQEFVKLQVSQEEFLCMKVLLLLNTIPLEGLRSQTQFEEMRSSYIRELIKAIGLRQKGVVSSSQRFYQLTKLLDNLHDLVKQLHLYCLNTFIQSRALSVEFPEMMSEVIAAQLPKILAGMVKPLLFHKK
Particulars: cited from earlier work.

For data set [2], the target named is T2, progesterone receptor (Homo sapiens, UniProt P06401).
T2 sequence (P06401 1-933): T1 sequence (P06401 1-933)
As to conditions: in comparison to RU 486; cited from earlier work.

The conditions of data set [3]: in comparison to RU 486 (mifeprison); cited from earlier work.
A short description of data set [4]: Active ingredient release (dissolution) of 1 mg capsules and tablets. Type of data set: physicochemical. Particulars: 0.3% SDS in water, paddle, 100 rpm. As for the experimental part: The release values were compared in a test medium, which comprises 0.3% SDS in water, with paddle stirrIng, 100 rpm.
Active Ingredient Release:
Active ingredient release measured in 1000 mL water with 0.3% sodium dodecyl sulfate, 100 rpm
Content Determination by HPLC with external calibration
Column: LiChrosphere 5μ RP-18 encapped, 150×3 mm
Eluent: acetonitrile/water=45/55

The nature of data set [5]: Stability of medicinal preparations under ICH conditions. Type of data set: physicochemical. Particulars: 40° C., 70% relative humidity; decomposition of carbamate to nitrile. The text has this:
The carbamate functional group of the above-mentioned 11β-benz-aldoxim-estra-4,9-diene derivative decomposes to form a nitrile by splitting off ethylamine and CO2.

Setting [6] is: 1 mg capsule, microcrystalline J956, particle diameter X50 3.4 μm, X100 25 μm.
[7] abbreviates: 1 mg capsule, microcrystalline J956, particle diameter X50 5.2 μm, X100 30 μm.
[8] abbreviates: 1 mg capsule, microcrystalline J956, particle diameter X50 6.6 μm, X100 43 μm.
Where [9] appears, read: 1 mg capsule, microcrystalline J956, particle diameter X50 8.7 μm, X100 43 μm.
Where [10] appears, read: 1 mg capsule, microcrystalline J956, particle diameter X50 14.1 μm, X100 87 μm.
Setting [11] is: 1 mg tablet, microcrystalline J956, particle diameter X50 10.6 μm, X100 73 μm.
Where [12] appears, read: 1 mg capsule with micronized effective ingredient J956.
Where [13] appears, read: 1 mg tablet with micronized effective ingredient J956.

For the molecule `CCNC(=O)ON=Cc1ccc(C2CC3(C)C(CCC3(COC)OC)C3CCC4=CC(=O)CCC4=C23)cc1` (stereo not drawn) [J956, 11β-{4-[(ethylamino-carbonyl)oximinomethyl]phenyl}-17β-methoxy-17α-methoxymethyl-estra-4,9-dien-3-one], the “activity in vivo at the progesterone receptor (PR)” value in data set [1] is “both agonistic and also antagonistic activity”. The “activity at the progesterone receptor” value in data set [2] is recorded as “same activity as RU 486”. For the same molecule, in data set [3], the antiglucocorticoid activity result is reported as “considerably reduced antiglucocorticoid activity”. The “RELEASE in % 0 min” value in data set [4] (setting [6]), in data set [4] (setting [7]), in data set [4] (setting [8]), in data set [4] (setting [9]), in data set [4] (setting [10]) and in data set [4] (setting [11]) was 0% throughout. Moreover, the “RELEASE in % 10 min” value in data set [4] (setting [6]) worked out at 90.7%; in data set [4] (setting [7]), 89.8%; in data set [4] (setting [8]) it was 93.2%; in data set [4] (setting [9]), 93.5%; in data set [4] (setting [10]), 90.2%; in data set [4] (setting [11]) it was 73.7%. The “RELEASE in % 20 min” value in data set [4] (setting [6]) is 97.3%; in data set [4] (setting [7]), 93.5%; in data set [4] (setting [8]) it was 95.9%; in data set [4] (setting [9]) it was 96.7%; in data set [4] (setting [10]) it was 95.3%; in data set [4] (setting [11]) it was 90.3%. For the same molecule, the “RELEASE in % 30 min” value in data set [4] (setting [6]) is given as 98.1%; in data set [4] (setting [7]), 93.4%; in data set [4] (setting [8]) it was 96.7%; in data set [4] (setting [9]), 98.5%; in data set [4] (setting [10]) it was 96.0%; in data set [4] (setting [11]) it was 91.85%. Besides, the “RELEASE in % 45 min” value in data set [4] (setting [6]) was 99.9%; in data set [4] (setting [7]), 95.6%; in data set [4] (setting [8]), 96.8%; in data set [4] (setting [9]), 99.7%; in data set [4] (setting [10]), 96.3%; in data set [4] (setting [11]) it was 96.6%.
On to `CCNC(=O)O/N=C/c1ccc([C@H]2C[C@@]3(C)[C@@H](CC[C@]3(COC)OC)[C@@H]3CCC4=CC(=O)CCC4=C32)cc1` [Micronizate], for which the “stability of effective ingredient in medicinal preparations under ICH” value in data set [5] is listed as “not sufficiently stable”. In data set [4] (setting [12]), the “RELEASE in % 0 min” value is 0%, the “RELEASE in % 10 min” value amounted to 92.1%, the “RELEASE in % 20 min” value was determined as 94.3% and the “RELEASE in % 30 min” value worked out at 94.6%. Also, the “RELEASE in % 45 min” value in data set [4] (setting [12]) is given as 94.9%. Besides, in data set [4] (setting [13]), the “RELEASE in % 0 min” value came out at 0%, the “RELEASE in % 10 min” value is listed as 92.1%, the “RELEASE in % 20 min” value came out at 94.3% and the “RELEASE in % 30 min” value came to 94.6%. Further, the “RELEASE in % 45 min” value in data set [4] (setting [13]) came to 94.9%.
